Key:
[1] = system: Staphylococcus aureus; experiment: log reduction, EPA germicidal spray test (GST) / OECD quantitative method; assay type: cell-based; details: FIG. 7; 1% SLS, 0.5% second alkyl sulfate, 0.4% silicate buffer, 0.25% chelating agent, carvacrol 0.2% up to 1%; 3 and 5 minute contact times
Method: Tests were performed under standards promulgated by the EPA (e.g., the EPA's germicidal spray test “GST”) and the OECD (e.g., the Organization for Economic Co-Operation and Development). The OECD standards include an evaluation of the tested compositions ability to work in an environment where the target surface being cleaned includes soiling. The GST test is carried out according to the EPA's Standard Operating Procedure for Germicidal Spray Products as Disinfectants (GSPT): Testing of Staphylococcus aureus, Pseudomonas aeruginosa, and Salmonella enterica, published under SOP MB-06-09, which is herein incorporated by reference in its entirety. Such is available at https://www.epa.gov/sites/default/files/2018-01/documents/mb-06-09,pdf. The OECD test is carried out according to the EPA's Standard Operating Procedure for OECD Quantitative Method for Evaluating Bactericidal and Mycobactericidal Activity of Microbicides Used on Hard, Non-Porous Surfaces, published under SOP MB-25-05, which is herein incorporated by reference in its entirety. Such is available at https://www.epa.gov/sites/default/files/2019-05/documents/mb-25-05.pdf.

[2] = system: Staphylococcus aureus; experiment: minimum inhibitory concentration test (normalized T0, growth after neutralisation); assay type: cell-based; details: for inhibitory effect (normalized T0, lower = increased inhibitory effect): FIG. 1, 0.5% essential oil compound, 5 minute contact time, 24 hour growth
Method: Various essential oil compounds were evaluated in a minimum inhibitory concentration test (e.g., against Staphylococcus aureus), to evaluate the inhibiting characteristics of the various tested compounds. […] Each candidate essential oil compound active was tested at 0.5% concentration, with 1% sodium lauryl sulfate (SLS), with a 5 minute contact time. As those of skill in the art will appreciate, the testing was conducted following EPA microbiology efficacy protocols, where the candidate active to be tested is applied to an inoculum (e.g., Staphylococcus aureus), and after a given contact time (e.g., 5 minutes), the active being tested is neutralized (e.g., with growth media), and the treated inoculum is allowed to grow out over a period of 24 hours. After the 24 hour growth period, an automated plate reader is used to measure inoculum growth, and the results are tabulated, relative to a control standard, which was not contacted with any active. Such testing therefore allows determination of which candidate actives provide for an inhibitory effect relative to a target microbe, as well as information relative to which candidate actives may be better than others.
Based on the results seen in FIG. 1, carvacrol was identified as a good candidate for further study. […] All tested samples included 1% SLS, with 0.5% of the shown co-surfactant, and 0.2% of the shown essential oil compound, with the results averaged over 3 contact times of 5, 15, and 30 minutes. […] For example, the amine oxide, sophorolipid, alkylpolyglycoside, and alcohol ethoxylate show such results, particularly in combination with carvacrol. For this reason, such surfactants may be avoided, in at least some embodiments of the present invention.
All tested samples included 1.5% SLS as the primary surfactant, with 1% of the shown essential oil compound, and 1% of the tested co-surfactant.
In particular, FIG. 5 plots change in T0 (ΔT0) compared to carvacrol as used alone (i.e. with no secondary essential oil compound).

[3] = FIG. 2, 1% SLS, 0.5% co-surfactant, 0.2% essential oil compound, averaged over contact times of 5, 15 and 30 minutes

Row | Compound | log reduction against Staphylococcus aureus [1] | inhibitory effect (normalized T0, lower = increased inhibitory effect) ([2]; 1% SLS) | inhibitory effect (normalized T0) ([2]; FIG. 3, 1.5% SLS, 1% essential oil compound, 1% co-surfactant) | inhibitory effect (normalized T0) [2, 3]
1 | Cc1ccc(C(C)C)cc1O [carvacrol] | increased log reduction with increasing carvacrol concentration | best inhibitory effect | lowest T0 values | 
2 | Cc1ccc(C(C)C)c(O)c1 [thymol, reference compound] |  | some inhibitory effect |  | 
3 | alcohol ethoxylate |  |  |  | opposite of an inhibitory effect
4 | alkylpolyglycoside |  |  |  | opposite of an inhibitory effect
5 | sophorolipid |  |  |  | opposite of an inhibitory effect
